Data taken from patent US7709482B2, “Polycyclic heteroaryl substituted triazoles useful as Axl inhibitors” (Rigel Pharmaceuticals, Inc., priority 2006, dated 2010).
pIC50: −log10 of the molar value. Read-outs that look alike come from different tables or passages of the source.

Biological target: T1, Axl (Homo sapiens, UniProt P30530)
T1 construct: endogenous in cells; host or cells: HeLa cells
T1 sequence (P30530 26-894): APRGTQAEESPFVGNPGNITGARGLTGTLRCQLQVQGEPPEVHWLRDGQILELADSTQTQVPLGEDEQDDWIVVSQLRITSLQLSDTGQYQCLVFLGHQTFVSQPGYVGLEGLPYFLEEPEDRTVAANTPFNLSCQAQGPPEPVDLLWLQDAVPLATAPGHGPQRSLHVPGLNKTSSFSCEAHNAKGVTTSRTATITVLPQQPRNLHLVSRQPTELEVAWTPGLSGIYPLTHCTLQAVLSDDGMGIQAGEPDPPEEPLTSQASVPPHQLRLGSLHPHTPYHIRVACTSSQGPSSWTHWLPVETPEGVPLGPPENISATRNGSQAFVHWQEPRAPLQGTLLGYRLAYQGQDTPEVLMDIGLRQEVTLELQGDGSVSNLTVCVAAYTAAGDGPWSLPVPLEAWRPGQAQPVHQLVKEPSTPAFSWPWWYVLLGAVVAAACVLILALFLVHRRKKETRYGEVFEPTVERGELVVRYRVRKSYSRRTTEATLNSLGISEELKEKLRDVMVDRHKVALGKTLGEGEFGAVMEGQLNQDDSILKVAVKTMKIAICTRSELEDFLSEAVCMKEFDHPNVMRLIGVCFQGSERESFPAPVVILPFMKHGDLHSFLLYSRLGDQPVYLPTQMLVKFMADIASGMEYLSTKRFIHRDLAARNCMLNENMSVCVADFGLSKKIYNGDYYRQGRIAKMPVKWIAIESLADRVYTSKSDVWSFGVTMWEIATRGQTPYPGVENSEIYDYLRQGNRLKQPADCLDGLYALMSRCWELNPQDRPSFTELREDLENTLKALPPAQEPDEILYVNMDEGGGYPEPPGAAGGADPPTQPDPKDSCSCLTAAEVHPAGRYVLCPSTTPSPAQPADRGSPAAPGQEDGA
Assay: Phospho-Akt In-Cell Western Assay (inhibition of Axl activity after Axl-antibody cross-linking)
Assay type: cell-based
Conditions: read-out: IC50
How it was run: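 Phospho-Akt was detected in formaldehyde-fixed cells by in-cell immunostaining with HRP chemiluminescence. Before fixation, HeLa cells kept 24 h in low-serum medium containing 500 ng/mL Axl/Fc received compound for 1 h at 37 °C, followed by 5-min Axl activation through antibody clustering.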

[1] = Hela cells, phospho-Akt chemiluminescence normalized to relative cell number, compounds of formula (Ia), Table 1

SMILES | pIC50 [1] | pIC50 (inhibition of Axl activity, Table 1, compounds of formula (Ia))
Nc1nc(Nc2ccc(CN3CCN(C4CCCC4)CC3)cc2)nn1-c1cc2c(nn1)-c1ccccc1CCC2 [Compound 104, 1-(6,7-dihydro-5H-benzo[6,7]cyclohepta[1,2-c]pyridazin-3-yl)-N^3-(4-((4-cyclopentylpiperazinyl)-methyl)phenyl)-1H-1,2,4-triazole-3,5-diamine] | > 6.00 | –
CN1CCC(N2CCN(c3ccc(Nc4nc(N)n(-c5cc6c(nn5)-c5ccccc5CCC6)n4)cc3F)CC2)CC1 [Compound 109, 1-(6,7-dihydro-5H-benzo[6,7]cyclohepta[1,2-c]pyridazin-3-yl)-N^3-(3-fluoro-4-(4-N-methylpiperidin-4-ylpiperazinyl)phenyl)-1H-1,2,4-triazole-3,5-diamine] | > 6.00 | –
Nc1nc(Nc2ccc(N3CC(N4CCCC4)C3)c(F)c2)nn1-c1cc2c(nn1)-c1ccccc1CCC2 [Compound 113, 1-(6,7-dihydro-5H-benzo[6,7]cyclohepta[1,2-c]pyridazin-3-yl)-N^3-(3-fluoro-4-(3-pyrrolidin-1-ylazetidinyl)phenyl)-1H-1,2,4-triazole-3,5-diamine] | > 6.00 | –
Nc1nc(Nc2ccc(N3CC[C@@H](CN4CCCC4)C3)c(F)c2)nn1-c1cc2c(nn1)-c1ccccc1CCC2 [Compound 115, 1-(6,7-dihydro-5H-benzo[6,7]cyclohepta[1,2-c]pyridazin-3-yl)-N^3-(3-fluoro-4-((S)-3-(pyrrolidin-1-ylmethyl)pyrrolidinyl)phenyl)-1H-1,2,4-triazole-3,5-diamine] | 5.00 to 6.00 | –
Nc1nc(Nc2ccc(N3CCC(N4CCCC4)CC3)cc2)nn1-c1cc2c(nn1)-c1ccccc1OCC2 [Compound 116, 1-(6,7-dihydro-5H-benzo[2,3]oxepino[4,5-c]pyridazin-3-yl)-N^3-(4-(4-pyrrolidin-1-ylpiperidinyl)phenyl)-1H-1,2,4-triazole-3,5-diamine] | 5.00 to 6.00 | –
Nc1nc(Nc2ccc3oc(CN4CCCC4)nc3c2)nn1-c1cc2c(nn1)-c1ccccc1OCC2 [Compound 118, 1-(6,7-dihydro-5H-benzo[2,3]oxepino[4,5-c]pyridazin-3-yl)-N^3-(2-(pyrrolidin-1-ylmethyl)benzo[d]oxazol-5-yl)-1H-1,2,4-triazole-3,5-diamine] | 5.00 to 6.00 | –
CN(C)CCN1CCOc2cc(Nc3nc(N)n(-c4cc5c(nn4)-c4ccccc4CCC5)n3)ccc21 [Compound 121, 1-(6,7-dihydro-5H-benzo[6,7]cyclohepta[1,2-c]pyridazin-3-yl)-N^3-(4-(2-dimethylaminoethyl)-(3,4-dihydro-2H-benzo[b][1,4]oxazin-7-yl))-1H-1,2,4-triazole-3,5-diamine] | > 6.00 | –
CN(C)CCN1CCOc2cc(Nc3nc(N)n(-c4cc5c(nn4)-c4ccccc4OCC5)n3)ccc21 [Compound 122, 1-(6,7-dihydro-5H-benzo[2,3]oxepino[4,5-c]pyridazin-3-yl)-N^3-(4-(2-dimethylaminoethyl)-(3,4-dihydro-2H-benzo[b][1,4]oxazin-7-yl))-1H-1,2,4-triazole-3,5-diamine] | > 6.00 | –
Nc1nc(Nc2ccc(N3Cc4ccccc4C3)c(F)c2)nn1-c1cc2c(nn1)-c1ccccc1SCC2 [Compound 123, 1-(6,7-dihydro-5H-benzo[2,3]thiepino[4,5-c]pyridazin-3-yl)-N^3-(3-fluoro-4-(isoindolin-2-yl)phenyl)-1H-1,2,4-triazole-3,5-diamine] | < 4.70 | –
Nc1nc(Nc2ccc(N3CCC(CN4CCCC4)CC3)c(F)c2)nn1-c1cc2c(nn1)-c1ccccc1CCC2 [Compound 124, 1-(6,7-dihydro-5H-benzo[6,7]cyclohepta[1,2-c]pyridazin-3-yl)-N^3-(3-fluoro-4-(4-(pyrrolidinylmethyl)-piperidinyl)phenyl)-1H-1,2,4-triazole-3,5-diamine] | > 6.00 | –
Nc1nc(Nc2ccc(N3CCC(CN4CCCC4)CC3)c(F)c2)nn1-c1cc2c(nn1)-c1ccccc1SCC2 [Compound 125, 1-(6,7-dihydro-5H-benzo[2,3]thiepino[4,5-c]pyridazin-3-yl)-N^3-(3-fluoro-4-(4-(pyrrolidinylmethyl)-piperidinyl)phenyl)-1H-1,2,4-triazole-3,5-diamine] | > 6.00 | –
Nc1nc(Nc2ccc(N3CC[C@H]4CCCC[C@@H]4C3)c(F)c2)nn1-c1cc2c(nn1)-c1ccccc1SCC2 [Compound 126, 1-(6,7-dihydro-5H-benzo[2,3]thiepino[4,5-c]pyridazin-3-yl)-N^3-(3-fluoro-4-((4aR,8aS)-decahydroisoquinolin-2-yl)phenyl)-1H-1,2,4-triazole-3,5-diamine] | < 4.70 | –
Nc1nc(Nc2ccc(N3CC[C@H]4CCCC[C@@H]4C3)c(F)c2)nn1-c1cc2c(nn1)-c1ccccc1CCC2 [Compound 127, 1-(6,7-dihydro-5H-benzo[6,7]cyclohepta[1,2-c]pyridazin-3-yl)-N^3-(3-fluoro-4-((4aR,8aS)-decahydroisoquinolin-2-yl)phenyl)-1H-1,2,4-triazole-3,5-diamine] | 5.00 to 6.00 | –
Nc1nc(Nc2ccc(N3CCN4CCCCC4C3)c(F)c2)nn1-c1cc2c(nn1)-c1ccccc1CCC2 (centres unmarked) [Compound 128, 1-(6,7-dihydro-5H-benzo[6,7]cyclohepta[1,2-c]pyridazin-3-yl)-N^3-(3-fluoro-4-(octahydro-1H-pyrido[1,2-a]pyrazin-2-yl)phenyl)-1H-1,2,4-triazole-3,5-diamine] | – | 5.00 to 6.00

More lines, now with the values ahead:

pIC50 [1] | pIC50 (inhibition of Axl activity, Table 1, compounds of formula (Ia)) | SMILES
> 6.00 | – | Cc1cc(Nc2nc(N)n(-c3cc4c(nn3)-c3ccccc3CCC4)n2)ccc1N1CCC(N2CCCC2)CC1 [Compound 106, 1-(6,7-dihydro-5H-benzo[6,7]cyclohepta[1,2-c]pyridazin-3-yl)-N^3-(3-methyl-4-(4-pyrrolidin-1-ylpiperidinyl)phenyl)-1H-1,2,4-triazole-3,5-diamine]
> 6.00 | – | Nc1nc(Nc2ccc(N3CCN(C4CCCC4)CC3)c(F)c2)nn1-c1cc2c(nn1)-c1ccccc1CCC2 [Compound 107, 1-(6,7-dihydro-5H-benzo[6,7]cyclohepta[1,2-c]pyridazin-3-yl)-N^3-(3-fluoro-4-(4-cyclopentylpiperazinyl)-phenyl)-1H-1,2,4-triazole-3,5-diamine]
> 6.00 | – | CC(C)N1CCN(Cc2ccc(Nc3nc(N)n(-c4cc5c(nn4)-c4ccccc4CCC5)n3)cc2)CC1 [Compound 108, 1-(6,7-dihydro-5H-benzo[6,7]cyclohepta[1,2-c]pyridazin-3-yl)-N^3-(4-((4-isopropylpiperazinyl)methyl)-phenyl)-1H-1,2,4-triazole-3,5-diamine]
> 6.00 | – | CN1CCC2(CCN(c3ccc(Nc4nc(N)n(-c5cc6c(nn5)-c5ccccc5CCC6)n4)cc3F)C2)C1 (centres unmarked) [Compound 110, 1-(6,7-dihydro-5H-benzo[6,7]cyclohepta[1,2-c]pyridazin-3-yl)-N^3-(3-fluoro-4-(7-methyl-2,7-diazaspiro[4.4]nonan-2-yl)phenyl)-1H-1,2,4-triazole-3,5-diamine]
> 6.00 | – | CC(C)N1CCN(c2ccc(Nc3nc(N)n(-c4cc5c(nn4)-c4ccccc4CCC5)n3)cc2F)CC1 [Compound 111, 1-(6,7-dihydro-5H-benzo[6,7]cyclohepta[1,2-c]pyridazin-3-yl)-N^3-(3-fluoro-4-(N-isopropylpiperazin-1-yl)phenyl)-1H-1,2,4-triazole-3,5-diamine]
> 6.00 | – | Cc1cc(Nc2nc(N)n(-c3cc4c(nn3)-c3ccccc3CCC4)n2)ccc1N1CCC(N2CCN(C)CC2)CC1 [Compound 114, 1-(6,7-dihydro-5H-benzo[6,7]cyclohepta[1,2-c]pyridazin-3-yl)-N^3-(3-methyl-4-(4-(N-methylpiperazin-4-yl)piperidin-1-yl)phenyl)-1H-1,2,4-triazole-3,5-diamine]
> 6.00 | – | Nc1nc(Nc2ccc(N3CCC(N4CCCC4)CC3)c(F)c2)nn1-c1cc2c(nn1)-c1ccccc1OCC2 [Compound 117, 1-(6,7-dihydro-5H-benzo[2,3]oxepino[4,5-c]pyridazin-3-yl)-N^3-(3-fluoro-4-(4-pyrrolidin-1-ylpiperidinyl)phenyl)-1H-1,2,4-triazole-3,5-diamine]
> 6.00 | – | Nc1nc(Nc2ccc(N3CCC(N4CCCC4)CC3)c(F)c2)nn1-c1cc2c(nn1)-c1ccccc1SCC2 [Compound 119, 1-(6,7-dihydro-5H-benzo[2,3]thiepino[4,5-c]pyridazin-3-yl)-N^3-(3-fluoro-4-(4-pyrrolidin-1-ylpiperidinyl)phenyl)-1H-1,2,4-triazole-3,5-diamine]
> 6.00 | – | Nc1nc(Nc2ccc(N3CCC(N4CCCC4)CC3)cc2)nn1-c1cc2c(nn1)-c1ccccc1SCC2 [Compound 120, 1-(6,7-dihydro-5H-benzo[2,3]thiepino[4,5-c]pyridazin-3-yl)-N^3-(4-(4-pyrrolidin-1-ylpiperidinyl)phenyl)-1H-1,2,4-triazole-3,5-diamine]
